Measured values reported in ChEMBL document CHEMBL4118214, “Structure activity relationships of anthranilic acid-based compounds on cellular and in vivo mitogen activated protein kinase-5 signaling pathways” (Bioorg Med Chem Lett, 2018).

system: MDA-MB-231; assay: Antitumor activity against human MDA-MB-231 cells xenografted in SCID/Beige mouse assessed as tumor volume at 25 mg/kg, qd measured on day 30 (reference value: 49.48 +/- 3.44 mm3); type: functional; conditions: not given

SMILES | Activity [mm3]
NC(=O)c1ccc(F)c(F)c1Nc1ccc(I)cc1F | 29.1

target: Dual specificity mitogen-activated protein kinase kinase; MEK1/2 (Homo sapiens, UniProt P36507+Q02750); assay: Activation of MEK1/2 in EGF-stimulated human MDA-MB-231 cells assessed as increase in pERK1/2 levels preincubated for 30 mins followed by EGF stimulation measured after 15 mins by Western blot analysis relative to control; type: cell-based; conditions: mda-mb-231, 0.25 h

Activity [%] | SMILES
20 | CN1CCN(C(=O)c2ccc(F)c(F)c2N(C)c2ccc(I)cc2F)CC1
20 | NC(=O)c1ccccc1Nc1ccccc1F
20 | CN1CCN(C(=O)c2ccc(F)c(F)c2Nc2ccccc2)CC1

target: T1, Dual specificity mitogen-activated protein kinase kinase 5 (Homo sapiens, UniProt Q13163); assay: Activation of MEK5 in EGF-stimulated human MDA-MB-231 cells assessed as increase in pERK5 levels preincubated for 30 mins followed by EGF stimulation measured after 15 mins by Western blot analysis relative to control; type: cell-based; design: concentration or dose not given beside the values; conditions: mda-mb-231, 0.25 h
T1 sequence (Q13163 whole entry): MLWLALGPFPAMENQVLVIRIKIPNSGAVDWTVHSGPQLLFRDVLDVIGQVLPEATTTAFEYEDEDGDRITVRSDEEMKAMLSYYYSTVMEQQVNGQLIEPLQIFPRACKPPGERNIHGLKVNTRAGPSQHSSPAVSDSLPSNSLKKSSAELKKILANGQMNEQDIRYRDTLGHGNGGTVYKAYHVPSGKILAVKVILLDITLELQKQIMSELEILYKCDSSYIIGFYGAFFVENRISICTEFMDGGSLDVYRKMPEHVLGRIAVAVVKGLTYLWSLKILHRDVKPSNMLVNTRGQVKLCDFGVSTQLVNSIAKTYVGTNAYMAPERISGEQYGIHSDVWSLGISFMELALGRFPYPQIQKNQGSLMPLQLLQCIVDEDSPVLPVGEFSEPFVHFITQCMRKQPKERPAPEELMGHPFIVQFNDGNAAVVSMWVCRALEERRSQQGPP

SMILES | Activity [%]
CN(c1ccc(I)cc1F)c1c(C(N)=O)ccc(F)c1F | 20
CCN(CC)C(=O)c1ccc(F)c(F)c1Nc1ccc(I)cc1F | 20
O=C(O)c1ccc(F)c(F)c1Nc1ccccc1 | 20

Second part, the molecule after the results:

Activity [%] | SMILES
20 | O=C(c1ccc(F)c(F)c1Nc1ccc(I)cc1F)N1CCNCC1
20 | O=C(O)c1ccc(F)c(F)c1Nc1ccccc1F
